In patent US20160287564A1, “METHODS OF ADMINISTERING GLUTAMINASE INHIBITORS” (Calithera Biosciences, Inc., priority 2015, published 2016):
Entries after “also recorded” stand apart in the source; their conditions may differ.

How the values were obtained:
[1] = Plasma pharmacokinetics after oral TID/BID dosing, fasted or fed, in human subjects with acute leukemia; settings: 600 mg twice a day with food
Experimental: The compound was administered three times per day (“TID”) at doses ranging from 100 mg per dose to 1000 mg per dose (i.e., 300 mg to 3000 mg total compound per day). Plasma levels of the compound were monitored on days 1, 15, and 22. Subjects received the compound in a fasted state on days 1 and 15 (e.g., without a meal as defined herein) and in a fed state on day 22 (e.g., with a meal as defined herein). Administration of the compound in a fasted state consisted of oral administration of a first dose 1 hour before breakfast, oral administration of a second dose at 3 PM, and oral administration of a third dose prior to bedtime.
Each subject from Example 1 who remained enrolled in the trial were administered 600 mg of the compound of formula III orally, twice a day (“BID”), with food, each day after day 22 of the trial (i.e., 1200 mg of the compound per day). […] Pharmacokinetics data was compared for subjects receiving 600 mg of the compound three times per day in a fasted state (i.e., 1800 mg of the compound per day, without meals as defined herein) and subjects receiving 600 mg of the compound two times per day in a fed state (i.e., 1200 mg of the compound per day, with meals as defined herein).

glutaminase = experiment: Glutaminase activity in peripheral blood mononuclear cells (PBMCs) of treated patients; type: in vivo, human; settings: PBMCs from three patients treated with 600, 800 and 1000 mg three times per day; 10-58% leukemic blast counts
Experimental: The compound was administered three times per day (“TID”) at doses ranging from 100 mg per dose to 1000 mg per dose (i.e., 300 mg to 3000 mg total compound per day).

[2] = Safety: dose-limiting toxicity and treatment-related adverse events in Examples 1 and 2
Experimental: (§1) The compound of formula III (CB-839) was administered, orally, to fifteen human subjects with acute leukemia for 22 days. The compound was administered three times per day (“TID”) at doses ranging from 100 mg per dose to 1000 mg per dose (i.e., 300 mg to 3000 mg total compound per day). Plasma levels of the compound were monitored on days 1, 15, and 22. Subjects received the compound in a fasted state on days 1 and 15 (e.g., without a meal as defined herein) and in a fed state on day 22 (e.g., with a meal as defined herein). Administration of the compound in a fasted state consisted of oral administration of a first dose 1 hour before breakfast, oral administration of a second dose at 3 PM, and oral administration of a third dose prior to bedtime.
(§2) Each subject from Example 1 who remained enrolled in the trial were administered 600 mg of the compound of formula III orally, twice a day (“BID”), with food, each day after day 22 of the trial (i.e., 1200 mg of the compound per day).

[3] = Pharmacokinetics in cancer patients, dosing schedule of FIG. 6; type: in vivo, human
Experimental: FIG. 6 is a table that describes the dosing regimen for CB-839.
CB-839 was administered to cancer patients according to the dosing schedule in FIG. 6. The half-life of CB-839 is approximately 4 hours.

acute leukemia = experiment: Clinical outcomes in efficacy-evaluable subjects with acute leukemia
Experimental: as §1, §2

[4] = occurred in greater than 10% of subjects, fifteen subjects
[5] = BID Fed dosing regimen, FIG. 6-8

time in which Cmax was reached [1]: 2 to 6 h
plasma levels of the compound ([1]; all subjects): exceeded 450 nM
PK variability with BID Fed dosing regimen [3, 5]: PK variability is reduced
exposure versus dose ([3]; cancer patients, dosing schedule of FIG. 6): Exposure generally increases with dose
half-life ([3]; human, in vivo, oral, cancer patients): ~4 h
Structure (SMILES): O=C(Cc1cccc(OC(F)(F)F)c1)Nc1ccc(CCCCc2nnc(NC(=O)Cc3ccccn3)s2)nn1 [CB-839]
inhibition of glutaminase activity (glutaminase): > 94%
dose-limiting toxicity ([2]; Examples 1 and 2, all dose levels): No dose-limiting toxicity was identified
increased bilirubin levels (treatment-related adverse event) [2, 4]: 2 subjects
increased transaminase levels (treatment-related adverse event) [2, 4]: 4 subjects
exposure with BID Fed dosing regimen [3, 5]: consistent exposure; also recorded: target CB-839 concentrations are maintained
complete response (acute leukemia; after 6 cycles of dosing): One subject achieved a complete response in the bone marrow with incomplete recovery of peripheral counts
stable disease for 4-10 cycles (acute leukemia; of 15 efficacy-evaluable subjects across all dose levels, 1 cycle=21 days): 5 (33%) subjects
average time remaining on the study drug (acute leukemia; subjects with stable disease): 134 days
